{"source": "paper PMC6874683", "about": "“Pyrrothiogatain acts as an inhibitor of GATA family proteins and inhibits Th2 cell differentiation in vitro” (Scientific Reports, 2019)", "system": "cytokine, GATA3 and Tbx21 mRNA", "assay": "Quantitative RT-PCR, total CD4+ T cells under IL-2 conditions", "assay_type": "cell-based, mouse", "settings": "30 µM, five days", "method": "C57BL/6 mice were purchased from Clea (Clea Japan, Inc., Tokyo, Japan). Total CD4^+ T cells isolated from mouse spleen were prepared using a FITC anti-mouse CD4 antibody (Cat#100510, RM4–5, BioLegend) and anti-FITC-microbeads (Cat#130-097-050, Miltenyi Biotec). Naive CD4^+ T cells (CD44^low, CD62L^high) were prepared using a MojoSort Mouse CD4 T cell Isolation Kit (Cat#480033), BioLegend). Biotinylated anti-CD44 (Cat#103004, IM7) and anti-CD25 antibodies (Cat#102004, PC61) were purchased from BioLegend. CD4^+ T cells (7.5 × 10^5) were stimulated using immobilized anti-TCR-β mAb (3 µg/mL, H57–597, BioLegend) plus an anti-CD28 mAb (1.0 µg/mL, cat#40–0281, TONBO Biosciences) for 2 days, and then, the cells were further expanded under similar conditions for an additional 3 days. IL-2 conditions: IL-2 (10 ng/mL, Pepro Tech); Th2 conditions: IL-2 (10 ng/mL, Pepro Tech), IL-4 (1 ng/mL, Pepro Tech), and anti-IFN-γ mAb (2.5 µg/mL, cat#40–731, TONBO Biosciences). Th1 conditions: IL-2 (10 ng/mL, Pepro Tech), IL-12 (1 ng/mL, Pepro Tech), and anti-IL-4 mAb (2.5 µg/mL, cat#40–731, TONBO Biosciences). The cultured cells were subjected to intracellular staining, ELISA assay, and RT-PCR. All animal experiments received approval from the Ehime University Administrative Panel for Animal Care. All animal care was conducted in accordance with the guidelines of Ehime University.\nTotal RNA was isolated using the TRI Reagent (Molecular Research Center, Inc.). Reverse transcription and qRT-PCR were performed using the Transcriptor First Strand cDNA Synthesis Kit (Cat#04379012001, Roche) and FastStart Essential DNA Green Master (Cat#06402712001, Roche), according to the manufacturer’s protocols. qRT-PCR primers were used as follow; IL-4: 5′-GATCGGCATTTTCAACGAG-3′ (forward), 5′-[…]-3′ (reverse); IL-13: 5′-[…]-3′ (forward), 5′-[…]-3′ (reverse); IFN-γ: 5′-[…]-3′ (forward), 5′-[…]-3′ (reverse); IL-2: 5′-[…]-3′ (forward), 5′-[…]-3′ (reverse); Gata3: 5′-TTATCAAGCCCAAGCGAAG-3′ (forward), 5′-TGGTGGTGGTCTGACAGTT-3′ (reverse); and Tbx21: 5′-[…]-3′ (forward), 5′-[…]-3′ (reverse).\n(C) Quantitative RT-PCR analysis of the pyrrothiogatain-treated Th2 cells shown in panel (A).", "data": [{"smiles": "Cc1ccc(C)n1-c1ccsc1C(=O)O", "note": "[Pyrrothiogatain, 3-(2,5-dimethyl-1H-pyrrol-1-yl)thiophene-2-carboxylic acid]", "values": [{"measurement": "Expression of GATA3, mRNA level", "result": "not influenced"}, {"measurement": "Expression of Tbx21", "result": "increased"}, {"measurement": "mRNA expression of IFN-γ (RT-qPCR)", "result": "Increased"}, {"measurement": "mRNA expression of IL-4, IL-5, IL-10, and IL-13 (RT-qPCR)", "result": "decreased"}]}]}
